Experimental data: paper PMC12389269, “Heteroaryl-Capped Hydroxamic Acid Derivatives with Varied Linkers: Synthesis and Anticancer Evaluation with Various Apoptosis Analyses in Breast Cancer Cells, Including Docking, Simulation, DFT, and ADMET Studies” (Pharmaceuticals, 2025)
Entries after “also recorded” stand apart in the source; their conditions may differ.

Key:
A549 cells = assay: MTT cytotoxicity assay, A549; format: cell-based; details: Homo sapiens, A549, 24 h
Experimental: (§1) Following an extensive review of the literature, we selected human breast cancer (MCF-7, MDA-MB-231) and lung cancer (A549) cell lines to evaluate the anticancer potential of the synthesized compounds, and some compounds with good anti-proliferation activity were again tested to evaluate their cytotoxic potential on A-549, MCF-7, and MDA-MB-231. The same were also tested on one non-cancerous/normal (HEK-293) cell line. All the cell lines for the required screening were developed in a suitable medium comprising 10% FBS and 2mM L-glutamine. Cancerous and non-cancerous/normal cell lines were selected for the cell proliferation and cytotoxicity assay and maintained with 5% CO2 at 37 °C in a CO2 incubator with 100% relative humidity for one complete day before the addition of experimental drugs.
(§2) MTT, a well-known colorimetric cytotoxic assay was performed to validate the cytotoxicity of the selected compounds—VI(b), VI(c), VI(e), and VI(i)—against three different human tumor cell lines [MCF-7, MDA-MB-231, A549] and a normal cell line [HEK293]. The seeding of 1 × 10^4 cells onto each well was executed in a 96-well plate in triplicate, and to keep the cells viable, overnight incubation was undertaken at 37 °C with 5% CO2 in a CO2 incubator. […] The microplate reader was set at 570 nm to measure the absorbance of each well.

MDA-MB-231 cells = assay: MTT cytotoxicity assay, MDA-MB-231; format: cell-based; details: Homo sapiens, MDA-MB-231, 24 h
Experimental: as §1, §2

HDAC6 = target: T1, HDAC6 (Homo sapiens, UniProt Q9UBN7); assay: HDAC inhibition assay (color de lys ELISA kit), HDAC6; format: biochemical; details: HeLa nuclear extract as source of HDAC activity
T1 construct: The HeLa nuclear extract was used as a source of HDAC activity; host or cells: HeLa (nuclear extract / cells)
T1 sequence (Q9UBN7 1-1215): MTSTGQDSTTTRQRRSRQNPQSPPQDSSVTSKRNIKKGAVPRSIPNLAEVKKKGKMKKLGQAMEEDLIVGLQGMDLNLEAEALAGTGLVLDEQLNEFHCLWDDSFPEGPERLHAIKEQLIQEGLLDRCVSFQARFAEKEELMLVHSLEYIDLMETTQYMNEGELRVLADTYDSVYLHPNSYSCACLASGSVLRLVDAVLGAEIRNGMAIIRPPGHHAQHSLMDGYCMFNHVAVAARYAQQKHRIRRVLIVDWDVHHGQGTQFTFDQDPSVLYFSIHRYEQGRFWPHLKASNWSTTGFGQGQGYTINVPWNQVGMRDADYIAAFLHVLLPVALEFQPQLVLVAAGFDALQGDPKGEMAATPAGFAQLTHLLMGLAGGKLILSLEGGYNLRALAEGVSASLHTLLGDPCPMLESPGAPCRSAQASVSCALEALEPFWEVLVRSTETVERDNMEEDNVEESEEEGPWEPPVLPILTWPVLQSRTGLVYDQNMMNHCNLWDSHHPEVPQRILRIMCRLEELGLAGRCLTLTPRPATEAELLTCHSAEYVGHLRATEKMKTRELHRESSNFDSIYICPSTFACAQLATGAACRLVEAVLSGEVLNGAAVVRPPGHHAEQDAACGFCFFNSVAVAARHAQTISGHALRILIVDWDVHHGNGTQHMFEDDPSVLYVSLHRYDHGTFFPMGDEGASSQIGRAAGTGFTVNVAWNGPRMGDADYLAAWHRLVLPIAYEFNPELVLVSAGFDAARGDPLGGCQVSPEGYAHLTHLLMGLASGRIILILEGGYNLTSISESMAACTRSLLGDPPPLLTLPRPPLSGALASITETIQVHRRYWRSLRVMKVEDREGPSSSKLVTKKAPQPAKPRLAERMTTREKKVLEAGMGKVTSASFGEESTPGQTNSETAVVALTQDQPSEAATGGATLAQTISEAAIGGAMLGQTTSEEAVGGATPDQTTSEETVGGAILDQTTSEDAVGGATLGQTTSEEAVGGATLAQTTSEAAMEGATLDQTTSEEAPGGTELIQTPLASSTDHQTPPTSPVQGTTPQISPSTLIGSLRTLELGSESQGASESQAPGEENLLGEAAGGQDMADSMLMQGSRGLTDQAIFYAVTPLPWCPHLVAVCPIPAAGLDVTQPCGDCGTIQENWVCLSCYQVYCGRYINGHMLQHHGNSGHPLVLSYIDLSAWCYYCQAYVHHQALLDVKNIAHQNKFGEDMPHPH
Experimental: (§3) SAHA served as the assay’s positive control. The HeLa nuclear extract was used as a source of HDAC activity. The trypsinized HeLa cells were tallied, put into 96-well microtiter plates, and nurtured. Samples and the standard were placed in wells at a concentration of 100 µL. The culture environment was maintained as per the procedure. 3,3′,5,5′-tetramethylbenzidine (TMB) was included for visualization. Finally, 50 µL of halt solution was smeared. The samples and different SAHA concentrations (0.01, 0.1, 1, 10 μM) were introduced to the appropriate well and left for 72 h. BioTek Epoch (Winooski, VT, USA) microplate reader was used to quantify optical density at 450 nm. The Graph Pad Prism 5 helped to determine the IC50 values.

HEK-293 cells = assay: MTT cytotoxicity assay, normal cell line HEK-293; format: cell-based
Experimental: as §1, §2

HDAC1 = target: T2, HDAC1 (Homo sapiens, UniProt Q13547); assay: HDAC inhibition assay (color de lys ELISA kit), HDAC1; format: biochemical; details: HeLa nuclear extract as source of HDAC activity
T2 construct: The HeLa nuclear extract was used as a source of HDAC activity; host or cells: HeLa (nuclear extract / cells)
T2 sequence (Q13547 whole entry): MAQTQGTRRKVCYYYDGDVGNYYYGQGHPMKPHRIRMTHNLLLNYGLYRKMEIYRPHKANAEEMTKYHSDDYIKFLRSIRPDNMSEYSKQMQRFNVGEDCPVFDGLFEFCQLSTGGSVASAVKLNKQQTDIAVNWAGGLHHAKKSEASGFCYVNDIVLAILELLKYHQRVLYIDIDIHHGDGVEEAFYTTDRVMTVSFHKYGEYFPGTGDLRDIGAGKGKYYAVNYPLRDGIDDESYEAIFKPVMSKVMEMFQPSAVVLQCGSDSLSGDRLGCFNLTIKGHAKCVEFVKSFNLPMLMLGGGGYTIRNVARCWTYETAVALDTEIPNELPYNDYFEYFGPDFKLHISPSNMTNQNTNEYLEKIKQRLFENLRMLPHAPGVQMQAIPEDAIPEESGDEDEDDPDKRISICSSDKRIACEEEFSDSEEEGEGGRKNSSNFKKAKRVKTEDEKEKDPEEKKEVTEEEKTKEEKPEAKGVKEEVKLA
Experimental: as §3

MCF-7 cells = assay: Cell cycle analysis, propidium iodide flow cytometry; format: cell-based, human
Experimental: Apoptosis can also be determined based on the content of the DNA allocation at different stages of cell cycle distribution. The cultured MCF-7 cell line was washed, trypsinized, and seeded, followed by compound VI(i) exposure in a 6-well cell culture plate. Following this, cells were harvested using 1mM EDTA; then, to fix the cells, ice-cold ethanol was used, and overnight, cells were kept at −20 °C. Afterwards, cells were maintained at room temperature, followed by centrifugation at 3000 RPM for 7 min. Then, staining was conducted using propidium iodide, RNase A, and Triton-X in a buffer (phosphate-buffered saline). It was then analyzed using a flow cytometer.

[1] = MCF-7, IC50 concentration (60 µg/mL)
[2] = MCF-7, higher concentration (80 µg/mL)
[3] = MCF-7, lower concentration (40 µg/mL)

COc1ccc(-c2cnn(CCCCCC(=O)NO)n2)cc1 [VI(i), N-Hydroxy-6-(4-(4-methoxyphenyl)-2H-1,2,3-triazol-2-yl)hexanamide]
IC50 (A549 cells): > 100 µg/mL
IC50 (MDA-MB-231 cells): > 100 µg/mL
IC50 (HDAC6): 13.4 µM
toxicity towards normal cell line (HEK-293 cells): low toxicity; also recorded: somewhat minimal toxicity
IC50 (HDAC1): 10.1 µM
increase in cells arrested in G2/M phase compared to control (MCF-7 cells; [1]): 15.91%
increase in cells arrested in S phase compared to control (MCF-7 cells; [1]): 6.9%
increase in cells arrested in G2/M phase compared to control (MCF-7 cells; [2]): 19.35%
increase in cells arrested in S phase compared to control (MCF-7 cells; [2]): 6.07%
increase in cells arrested in G2/M phase compared to control (MCF-7 cells; [3]): 11.98%
increase in cells arrested in S phase compared to control (MCF-7 cells; [3]): 5.92%
